Experimental data published in publication doi:10.1101/611376v1 (biorxiv, 2019).

Target: human insulin (hINS) (Homo sapiens, UniProt P01308)
Experiment: isothermal titration calorimetry
Format: binding

Sequence of human insulin (hINS) (P01308 25-54): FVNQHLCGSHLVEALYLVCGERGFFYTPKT
Sequence of human insulin (hINS) (P01308 90-110): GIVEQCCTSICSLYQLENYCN

Oc1ccc(/C=C/c2cc(O)cc(O)c2)cc1 [resveratrol, trans-3,4,5-trihydroxystilbene]
Kd: 12.8 µM
